According to patent publication US10391137B2, “Platelet-derived growth factor-BB production promotor, and mesenchymal stem cell production accelerator, stem cell stabilizer and dermal regenerator comprising the same” (Shiseido Company, Ltd., priority 2011, dated 2019):

System: PDGF-B gene expression in human vascular endothelial cells HUVEC
Experiment: Evaluation of PDGF-BB production-promoting effect in vascular endothelial cells (PDGF-B mRNA, quantitative RT-PCR)
Type: cell-based
Conditions: 10 ppm in medium, cultured 2 days, PDGF-BB mRNA vs. solvent control, G3PDH internal standard
Protocol: Human vascular endothelial cells HUVEC were subcultured with EGM-2 medium (Sanko Junyaku Co., Ltd.), and cells of the 4th subculture were suspended in VEGF-A-free Humedia-EG2 medium (Kurabo Industries, Ltd.) and seeded in a collagen-coated 24-well multiplate (Asahi Glass Co., Ltd.) at a 20,000 cell ratio, and culturing was conducted in the presence of 5% CO2 for 3-5 days until the cells reached confluence at 37° C. After exchange with Humedia-EG2 medium (Kurabo Industries, Ltd.) containing each sample added to the specified concentration or an added solvent dissolving each evaluation sample, culturing was continued for 2 days. The mRNA was extracted and purified from the cultured cells using an RNA extraction reagent MagNA Pure LC mRNA HS kit (Roche) and an automatic nucleic acid extraction apparatus MagNA Pure LC 1.0 Instrument (Roche), according to the manufacturer's protocol. For each sample, an equal volume of mRNA was used as template for one-step quantitative real time (RT)-PCR of the PDGF-B gene using primer pairs of SEQ ID NO: 1 and 2 listed below, the reaction reagent QuantiFast SYBR Green RT-PCR Kit (Qiagen) and a LightCycler reactor (Roche). The composition conditions were according to the protocol by Qiagen. […]

| SMILES | PDGF-BB expression (vs. control) |
| --- | --- |
| O[C@H]1[C@H](O)[C@@H](O)[C@H](O)[C@@H](O)[C@H]1O [Inositol, myo-inositol] | 1.37 |
| O=P(O)(O)O[C@H]1[C@H](OP(=O)(O)O)[C@@H](OP(=O)(O)O)[C@H](OP(=O)(O)O)[C@@H](OP(=O)(O)O)[C@H]1OP(=O)(O)O [Phytic acid, phytic acid] | 1.20 |
